Assay results as given in US20020164721A1, “Design of a polyepitopic construct for the induction of HLA-A2.1 restricted HIV 1 specific CTL responses using HHD mice” (priority 1999, published 2002).
“Also recorded” adds a separate entry of the source. Read-outs that look alike come from different tables or passages of the source.

Key:
[1] = system: peptide-pulsed HHD-transfected RMAS cells; type: in vivo, HHD mice; conditions: for Maximum specific lysis (%): each responder mouse
[2] = system: peptide-pulsed HHD-transfected RMAS cells; type: in vivo, HHD mice
[3] = system: HHD-transfected RMA-S cells loaded with relevant peptide; assay: CTL response of HHD mice injected s.c. with tumor epitopic peptide in IFA (51Cr-release assay); type: in vivo; conditions: for hierarchy of CTL inducers: peptide alone in IFA, by number of responding mice and level of specific lysis; for R/T (responder versus tested mice) / lysis in % (maximal lysis for each responder mouse): peptide s.c. in IFA; for R/T (responder versus tested mice): no helper, responder = at least 10% specific lysis; for lysis in % (maximal lysis for each responder mouse): usually 60:1 E/T ratio
[4] = system: HHD-transfected RMA-S cells loaded with relevant peptide; assay: CTL response of A2A2Kb mice injected s.c. with tumor epitopic peptide in IFA (51Cr-release assay); type: in vivo; conditions: for R/T (responder versus tested mice): responder = at least 10% specific lysis
[5] = system: HHD-transfected RMA-S target cells loaded with relevant peptide; assay: CTL response of HHD mice co-immunized in IFA with tumor peptide and HBVc.128 helper peptide; type: in vivo; conditions: for R/T (responder versus tested mice): 50 μg CD8 peptide + 140 μg HBVc.128 helper in IFA; for CTL response with helper peptide (in words): co-injected with HBVc.128 helper, compared with peptide alone
[6] = system: peptide-loaded HHD-transfected RMA-S cells and HHD-transfected HeLa cells expressing the polyepitope; assay: Melanoma polyepitopic pCMV-B10 DNA immunization of HHD mice, CTL assay; type: in vivo; conditions: pCMV-B10 DNA with 10 melanoma epitopes, FIG. 1C and D
HLA-A2.1 molecules = target: T1, HLA-A2.1 molecules (Homo sapiens, UniProt P04439, D140Y/D185E/D98H/E176V/E277Q/G131W/G231S/I119V/I121R/I166T/I218V/L300P/L318F/N151K/N90K/P208A/P217A/Q86G/Q94H/R138H/R169H/T345S); type: binding
T1 construct: Using TAP-deficient, HLA-A2.1^+ T2 cells, we evaluated these parameters in an immunofluorescence assay; endogenous in cells; host or cells: T2 cells (TAP-deficient, HLA-A2.1+)

[7] = by number of responder mice and strength of responses, peptide in IFA
[8] = without helper peptide, 100 μg peptide s.c. in IFA
[9] = with helper peptide, 50 μg CD8 + 140 μg HBV core T13L in IFA
[10] = wild-type HIV 1 peptides, reference I9V, T2 cells

AFHHVAREL [A9L, HIV 1 NEF (188-196) CD8 epitopic peptide]
classification as immunogen [1, 7]: inefficient | Responder/tested mice [1, 8]: 0/6 | Responder/tested mice [2, 9]: 0/6

ESELVNQIIEQ [E11Q]
classification as immunogen ([1]; mouse, in vivo): inefficient | Responder/tested mice ([1]; mouse, in vivo, sc): 0/6 | Responder/tested mice ([2]; mouse, in vivo): 0/6

FLWGPRALV [MAGE-3.271]
hierarchy of CTL inducers [3]: weak | R/T (responder versus tested mice) [3]: 1/6 | lysis in % (maximal lysis for each responder mouse) [3]: (33) % | R/T (responder versus tested mice) [4]: 0/6 | R/T (responder versus tested mice) [5]: 6/6 | CTL response with helper peptide (in words) [5]: good CTL responses in a large proportion of mice | CTL response against the epitope after melanoma polyepitope DNA immunization (in words) [6]: No specific lysis

IISAVVGIL [Her2/neu.654, Her2/neu 654-662 epitopic peptide]
hierarchy of CTL inducers [3]: weak | R/T (responder versus tested mice) [3]: 1/6 | lysis in % (maximal lysis for each responder mouse) [3]: (42) % | R/T (responder versus tested mice) [4]: 0/6 | R/T (responder versus tested mice) [5]: 0/6

ILKEPVHGV [I9V]
classification as immunogen [1, 7]: strong | Responder/tested mice [1, 8]: 4/6 | Responder/tested mice [2, 9]: 5/6

ILTVILGVL [Melan-A/MART-1.32, Melan-A/MART-1 32-40 epitopic peptide]
hierarchy of CTL inducers [3]: inefficient | R/T (responder versus tested mice) [3]: 0/6 | R/T (responder versus tested mice) [4]: 0/6 | RA (relative affinity) (HLA-A2.1 molecules): 21.1 | R/T (responder versus tested mice) [5]: 1/6 | lysis in % ([5]; co-injected with HBVc.128 helper peptide in IFA, each responder mouse): (10) % | CTL response against the epitope after melanoma polyepitope DNA immunization (in words) [6]: did not elicit CTL responses; also recorded: No specific lysis

ITDQVPFSV [gp100.209]
hierarchy of CTL inducers [3]: weak | R/T (responder versus tested mice) [3]: 1/6 | lysis in % (maximal lysis for each responder mouse) [3]: (23) % | R/T (responder versus tested mice) [4]: 0/6 | R/T (responder versus tested mice) [5]: 3/6 | CTL response against the epitope after melanoma polyepitope DNA immunization (in words) [6]: elicited CTL responses depending on mice; also recorded: No specific lysis

KTWGQYWQV [gp100.154]
hierarchy of CTL inducers [3]: strong | R/T (responder versus tested mice) [3]: 4/6 | R/T (responder versus tested mice) [4]: 5/6 | R/T (responder versus tested mice) [5]: 9/11 | CTL response with helper peptide (in words) [5]: stronger responses in a larger proportion of mice | CTL response against the epitope after melanoma polyepitope DNA immunization (in words) [6]: Strong responses

LLDGTATLRL [gp100.457]
hierarchy of CTL inducers [3]: inefficient | R/T (responder versus tested mice) [3]: 0/6 | R/T (responder versus tested mice) [4]: 0/6 | RA (relative affinity) (HLA-A2.1 molecules): 1.65 | R/T (responder versus tested mice) [5]: 5/6 | CTL response with helper peptide (in words) [5]: good CTL responses in a large proportion of mice | CTL response against the epitope after melanoma polyepitope DNA immunization (in words) [6]: Significant responses

LLGRNSFEV [p53.264]
hierarchy of CTL inducers [3]: inefficient | R/T (responder versus tested mice) [3]: 0/7 | R/T (responder versus tested mice) [4]: 0/6 | R/T (responder versus tested mice) [5]: 2/3

LLWKGEGAV [L9V, HIV 1 POL (956-964) CD8 epitopic peptide]
classification as immunogen [1, 7]: intermediate | Responder/tested mice [1, 8]: 3/6

MLLAVLYCL [Tyrosinase.1, Tyrosinase 1-9 epitopic peptide]
hierarchy of CTL inducers [3]: inefficient | R/T (responder versus tested mice) [3]: 0/10 | R/T (responder versus tested mice) [4]: 0/6 | RA (relative affinity) (HLA-A2.1 molecules): >60 | R/T (responder versus tested mice) [5]: 5/6 | CTL response with helper peptide (in words) [5]: good CTL responses in a large proportion of mice | CTL response against the epitope after melanoma polyepitope DNA immunization (in words) [6]: did not elicit CTL responses; also recorded: No specific lysis

PLTFGWCFKL [P10L, HIV 1 NEF (134-143) CD8 epitopic peptide]
RA (relative affinity) (HLA-A2.1 molecules; [10]): >100/ND | classification as immunogen [1, 7]: inefficient | Responder/tested mice [1, 8]: 0/6 | Responder/tested mice [2, 9]: 0/6

PLVKLWYQL [P9L, HIV 1 POL (576-584) CD8 epitopic peptide]
RA (relative affinity) (HLA-A2.1 molecules; [10]): >100/ND | classification as immunogen [1, 7]: inefficient | Responder/tested mice [1, 8]: 0/6 | Responder/tested mice [2, 9]: 0/6

RLRDLLLIV [R9V, HIV 1 ENV gp41 (260-268) CD8 epitopic peptide]
RA (relative affinity) (HLA-A2.1 molecules): >100/ND | classification as immunogen [1, 7]: intermediate | Responder/tested mice [1, 8]: 1/6 | Maximum specific lysis (%) ([1]; without helper peptide): 14% | Responder/tested mice [2, 9]: 0/6

RMPEAAPPV [p53.65, p53 65-73 epitopic peptide]
hierarchy of CTL inducers [3]: intermediate | R/T (responder versus tested mice) [3]: 4/6 | R/T (responder versus tested mice) [4]: 0/6 | RA (relative affinity) (HLA-A2.1 molecules): 0.91 | R/T (responder versus tested mice) [5]: 5/6 | CTL response with helper peptide (in words) [5]: stronger responses in a larger proportion of mice

STPPPGTRV [p53.149, p53 149-157 epitopic peptide]
hierarchy of CTL inducers [3]: inefficient | R/T (responder versus tested mice) [3]: 0/6 | R/T (responder versus tested mice) [4]: 0/6 | R/T (responder versus tested mice) [5]: 3/6

TLGIVCPI [HPV E7.86, HPV16 E7 86-93 epitopic peptide]
hierarchy of CTL inducers [3]: inefficient | R/T (responder versus tested mice) [3]: 0/6 | R/T (responder versus tested mice) [4]: 2/6 | R/T (responder versus tested mice) [5]: 2/6

TLNAWVKVV [T9V]
classification as immunogen [1, 7]: intermediate | Responder/tested mice [1, 8]: 2/6 | Responder/tested mice [2, 9]: 3/5

VIYQYMDDL [V9L, HIV 1 POL (334-342) CD8 epitopic peptide]
classification as immunogen [1, 7]: intermediate | Responder/tested mice [1, 8]: 1/6 | Maximum specific lysis (%) ([1]; without helper peptide): 34% | Responder/tested mice [2, 9]: 1/6 | Maximal specific lysis (%) ([2]; with helper peptide, each responder mouse): 57%

VLYRYGSFSV [gp100.476, gp100 476-485 human melanoma epitopic peptide]
hierarchy of CTL inducers [3]: weak | R/T (responder versus tested mice) [3]: 2/6 | R/T (responder versus tested mice) [4]: 1/6 | lysis in % (maximal lysis for each responder mouse) ([4]; usually 60:1 E/T ratio): (29) % | RA (relative affinity) (HLA-A2.1 molecules): 10 | R/T (responder versus tested mice) [5]: 6/7 | CTL response against the epitope after melanoma polyepitope DNA immunization (in words) [6]: did not elicit CTL responses
